Test results taken from patent US5278052A, “Process for the simultaneous production of benanomicins A and B” (Zaidan Hojin Biseibutsu Kagaku Kenkyu Kai, priority 1987, dated 1994).
≈ marks a conversion by molar mass, not a printed value. Counter-ions that a name gives are not always drawn. Like-named read-outs stand apart in the source and are kept apart here.

Assays:
[1] = Distinction between the basic, acidic and neutral natures of substance; assay type: physicochemical
[2] = system: Cryptococcus neoformans F-10; assay: MIC by standard serial dilution method (fungi); assay type: cell-based
[3] = system: Trichophyton asteroides 429; assay: MIC by standard serial dilution method (fungi); assay type: cell-based; conditions: dexylosylbenanomicin B as hydrochloride
[4] = system: Candida pseudotropicalis F-2; assay: MIC by standard serial dilution method (fungi); assay type: cell-based; conditions: Kluyveromyces marxianus, F2
Cochliobolus miyabeanus = assay: MIC by standard serial dilution method (fungi); assay type: cell-based; conditions: Bipolaris oryzae
[5] = system: Corynebacterium bovis 1810; assay: MIC by standard serial dilution method (bacteria)
[6] = system: Staphylococcus aureus FDA209P; assay: MIC by standard serial dilution method (bacteria)
in vivo = conditions: mouse, iv
[7] = system: Pseudomonas aeruginosa A3; assay: MIC by standard serial dilution method (bacteria)
[8] = system: Shigella dysenteriae JS11910; assay: MIC by standard serial dilution method (bacteria)
Escherichia coli NIHJ = assay: MIC by standard serial dilution method (bacteria)
Salmonella typhi T-63 = assay: MIC by standard serial dilution method (bacteria); conditions: Salmonella enterica
Micrococcus luteus FDA16 = assay: MIC by standard serial dilution method (bacteria)
[9] = system: Saccharomyces cerevisiae F-7; assay: MIC by standard serial dilution method (fungi); assay type: cell-based; conditions: F7, dexylosylbenanomicin B as hydrochloride
Pellicularia sasakii = assay: MIC by standard serial dilution method (fungi); assay type: cell-based; conditions: dexylosylbenanomicin B as hydrochloride
Proteus vulgaris OX19 = assay: MIC by standard serial dilution method (bacteria)
[10] = system: Staphylococcus aureus Smith; assay: MIC by standard serial dilution method (bacteria)
Pyricularia oryzae = assay: microbe, parasite or virus in culture; assay type: cell-based
Xanthomonas oryzae = assay: microbe, parasite or virus in culture; assay type: cell-based
Aspergillus niger = assay: MIC by standard serial dilution method (fungi); assay type: cell-based; conditions: dexylosylbenanomicin B as hydrochloride
Candida albicans 3147 = assay: MIC by standard serial dilution method (fungi); assay type: cell-based; conditions: dexylosylbenanomicin B as hydrochloride
Candida Yu-1200 = assay: MIC by standard serial dilution method (fungi); assay type: cell-based; conditions: YU1200, dexylosylbenanomicin B as hydrochloride
[11] = system: Trichophyton mentagrophytes (883); assay: MIC by standard serial dilution method (fungi); assay type: cell-based; conditions: dexylosylbenanomicin B as hydrochloride
Escherichia coli K-12 = assay: MIC by standard serial dilution method (bacteria); conditions: K12
Candida krusei F-5 = assay: MIC by standard serial dilution method (fungi); assay type: cell-based; conditions: Pichia kudriavzevii, F5, dexylosylbenanomicin B as hydrochloride
Candida tropicalis F-1 = assay: MIC by standard serial dilution method (fungi); assay type: cell-based; conditions: F1, dexylosylbenanomicin B as hydrochloride
various kinds of fungi = assay: antifungal activity, summary of Table 2; assay type: cell-based; conditions: as revealed from Table 2
From the text: 4. Antibacterial and antifungal activities of benanomicin A, benanomicin B and dexylosylbenanomicn B (as the hydrochloride) are described below.

Bacillus subtilis PCI219 = assay: MIC by standard serial dilution method (bacteria)
[12] = system: Mycobacterium smegmatis ATCC607; assay: MIC by standard serial dilution method (bacteria); conditions: Mycolicibacterium smegmatis
Xanthomonas citri = assay: MIC by standard serial dilution method; assay type: cell-based
[13] = system: Klebsiella pneumoniae PCI602; assay: MIC by standard serial dilution method (bacteria)
Jcl:ICR-strain mice = conditions: mouse, in vivo, iv, 600 mg/kg
Candida albicans = assay: therapeutic effect on experimental Candida infection in mice; conditions: 3 times (0, 6, 24 h)
[14] = Candida pseudotropicalis F-2, dexylosylbenanomicin B as hydrochloride, read-out: MIC

## COc1cc(O)c2c(c1)C(=O)c1c(cc3c(c1O)-c1c(cc(C)c(C(=O)N[C@H](C)C(=O)O)c1O)[C@H](O[C@@H]1O[C@H](C)[C@H](N)[C@H](O[C@@H]4OC[C@@H](O)[C@H](O)[C@H]4O)[C@H]1O)[C@H]3O)C2=O [Benanomicin B hydrochloride]
[1]
  Distinction between the basic, acidic and neutral natures of substance: Amphoteric substance
Solubility; acetone
  Solubility: Only sparingly soluble
Solubility; chloroform
  Solubility: Only sparingly soluble
Solubility; dimethylformamide
  Solubility: soluble
Solubility; dimethylsulfoxide
  Solubility: soluble
Solubility; ethyl acetate
  Solubility: Only sparingly soluble
Solubility; methanol
  Solubility: soluble
Solubility; water
  Solubility: soluble

## COc1cc(O)c2c(c1)C(=O)c1c(cc3c(c1O)-c1c(cc(C)c(C(=O)N[C@H](C)C(=O)O)c1O)C(O[C@@H]1O[C@H](C)[C@H](N)[C@H](O[C@@H]4OC[C@@H](O)[C@H](O)[C@H]4O)[C@H]1O)C3O)C2=O (stereo partly shown) [Benanomicin B]
[2]; F10, read-out: MIC
  MIC: 1.56 µg/mL (≈ 1.89 µM)
[3]
  MIC: 25 µg/mL (≈ 30.2 µM)
[4]; [14]
  MIC: 6.25 µg/mL (≈ 7.56 µM)
Cochliobolus miyabeanus
  MIC: > 100 µg/mL
[5]
  MIC: 3.12 µg/mL (≈ 3.77 µM)
[6]
  MIC: > 100 µg/mL
In vivo
  MTD: 100 mg/kg
[7]
  MIC: > 100 µg/mL
[8]
  MIC: > 100 µg/mL
Escherichia coli NIHJ
  MIC: > 100 µg/mL
Salmonella typhi T-63
  MIC: > 100 µg/mL
Micrococcus luteus FDA16
  MIC: 3.12 µg/mL (≈ 3.77 µM)
[9]
  MIC: 12.5 µg/mL (≈ 15.1 µM)
Pellicularia sasakii
  MIC: 50 µg/mL (≈ 60.5 µM)
Proteus vulgaris OX19
  MIC: > 100 µg/mL
[10]
  MIC: > 100 µg/mL
Pyricularia oryzae
  MIC: 50 µg/mL (≈ 60.5 µM)
Xanthomonas oryzae
  MIC: > 100 µg/mL
Aspergillus niger
  MIC: > 100 µg/mL
Candida albicans 3147
  MIC: 25 µg/mL (≈ 30.2 µM)
Candida Yu-1200
  MIC: 12.5 µg/mL (≈ 15.1 µM)
[11]
  MIC: 25 µg/mL (≈ 30.2 µM)
Escherichia coli K-12
  MIC: > 100 µg/mL
Candida krusei F-5
  MIC: 6.25 µg/mL (≈ 7.56 µM)
Candida tropicalis F-1
  MIC: > 100 µg/mL
Various kinds of fungi
  antifungal activities against various kinds of fungi: substantial antifungal activities
Bacillus subtilis PCI219
  MIC: > 100 µg/mL
[12]
  MIC: > 100 µg/mL
Xanthomonas citri
  MIC: > 100 µg/mL
[13]
  MIC: > 100 µg/mL

## COc1cc(O)c2c(c1)C(=O)c1c(cc3c(c1O)-c1c(cc(C)c(C(=O)N[C@H](C)C(=O)O)c1O)C(O[C@@H]1O[C@H](C)[C@H](N)[C@H](O)[C@H]1O)C3O)C2=O (stereo partly shown) [Dexylosylbenanomicin B]
[2]; F10
  MIC: 3.13 µg/mL (≈ 4.51 µM)
[3]
  MIC: 50 µg/mL (≈ 72 µM)
[4]
  MIC: 3.13 µg/mL (≈ 4.51 µM)
Cochliobolus miyabeanus
  MIC: 50 µg/mL (≈ 72 µM)
In vivo
  MTD: 100 mg/kg
[9]
  MIC: 6.25 µg/mL (≈ 9 µM)
Pellicularia sasakii
  MIC: 25 µg/mL (≈ 36 µM)
Pyricularia oryzae
  MIC: 25 µg/mL (≈ 36 µM)
Xanthomonas oryzae
  MIC: 100 µg/mL (≈ 144 µM)
Aspergillus niger
  MIC: 25 µg/mL (≈ 36 µM)
Candida albicans 3147
  MIC: 6.25 µg/mL (≈ 9 µM)
Candida Yu-1200
  MIC: 6.25 µg/mL (≈ 9 µM)
[11]
  MIC: 50 µg/mL (≈ 72 µM)
Candida krusei F-5
  MIC: 12.5 µg/mL (≈ 18 µM)
Candida tropicalis F-1
  MIC: 6.25 µg/mL (≈ 9 µM)
Various kinds of fungi
  antifungal activities against various kinds of fungi: substantial antifungal activities
Xanthomonas citri
  MIC: 100 µg/mL (≈ 144 µM)

## COc1cc(O)c2c(c1)C(=O)c1c(cc3c(c1O)-c1c(cc(C)c(C(=O)N[C@H](C)C(=O)O)c1O)C(O[C@@H]1O[C@H](C)[C@H](N)[C@H](O)[C@H]1O)C3O)C2=O (stereo partly shown) [Dexylosylbenanomicin B hydrochloride]
[1]
  Distinction between the basic, acidic and neutral natures of substance: Amphoteric substance

## COc1cc(O)c2c(c1)C(=O)c1c(cc3c(c1O)-c1c(cc(C)c(C(=O)N[C@H](C)C(=O)O)c1O)C(O[C@@H]1O[C@H](C)[C@H](O)[C@H](O[C@@H]4OC[C@@H](O)[C@H](O)[C@H]4O)[C@H]1O)C3O)C2=O (stereo partly shown) [Benanomicin A]
[2]; F10, read-out: MIC
  MIC: 3.12 µg/mL (≈ 3.77 µM)
[3]
  MIC: 50 µg/mL (≈ 60.4 µM)
[4]; [14]
  MIC: 6.25 µg/mL (≈ 7.55 µM)
Cochliobolus miyabeanus
  MIC: > 100 µg/mL
[5]
  MIC: 12.5 µg/mL (≈ 15.1 µM)
[6]
  MIC: 100 µg/mL (≈ 121 µM)
[1]
  Distinction between the basic, acidic and neutral natures of substance: Acidic substance
In vivo
  MTD: 600 mg/kg
[7]
  MIC: > 50 µg/mL
Jcl:ICR-strain mice
  mice killed: none of the mice was killed
[8]
  MIC: > 50 µg/mL
Escherichia coli NIHJ
  MIC: > 100 µg/mL
Salmonella typhi T-63
  MIC: > 100 µg/mL
Micrococcus luteus FDA16
  MIC: 12.5 µg/mL (≈ 15.1 µM)
[9]
  MIC: 6.25 µg/mL (≈ 7.55 µM)
Pellicularia sasakii
  MIC: 25 µg/mL (≈ 30.2 µM)
Proteus vulgaris OX19
  MIC: > 100 µg/mL
[10]
  MIC: > 100 µg/mL
Pyricularia oryzae
  MIC: 25 µg/mL (≈ 30.2 µM)
Xanthomonas oryzae
  MIC: > 100 µg/mL
Aspergillus niger
  MIC: 50 µg/mL (≈ 60.4 µM)
Candida albicans 3147
  MIC: 25 µg/mL (≈ 30.2 µM)
Candida Yu-1200
  MIC: 12.5 µg/mL (≈ 15.1 µM)
Solubility; acetone
  Solubility: Only sparingly soluble
Solubility; alkaline water
  Solubility: soluble
Solubility; chloroform
  Solubility: Only sparingly soluble
Solubility; dimethylformamide
  Solubility: soluble
Solubility; dimethylsulfoxide
  Solubility: soluble
Solubility; ethyl acetate
  Solubility: Only sparingly soluble
Solubility; methanol
  Solubility: Only sparingly soluble
Solubility; water
  Solubility: insoluble
[11]
  MIC: 50 µg/mL (≈ 60.4 µM)
Escherichia coli K-12
  MIC: > 100 µg/mL
Candida krusei F-5
  MIC: 6.25 µg/mL (≈ 7.55 µM)
Candida tropicalis F-1
  MIC: 25 µg/mL (≈ 30.2 µM)
Various kinds of fungi
  antifungal activities against various kinds of fungi: substantial antifungal activities
Bacillus subtilis PCI219
  MIC: > 100 µg/mL
[12]
  MIC: > 100 µg/mL
Xanthomonas citri
  MIC: > 100 µg/mL
[13]
  MIC: > 100 µg/mL
Candida albicans; 0.2 mg/mouse, subcutaneous
  Number of surviving mice: 0/5
  Percent of the number of surviving mice against the tested mice: 0%
Candida albicans; 0.3 mg/mouse, subcutaneous
  Number of surviving mice: 2/5
  Percent of the number of surviving mice against the tested mice: 40%
Candida albicans; 0.4 mg/mouse, subcutaneous
  Number of surviving mice: 1/5
  Percent of the number of surviving mice against the tested mice: 20%
Candida albicans; 0.8 mg/mouse, subcutaneous
  Number of surviving mice: 5/5
  Percent of the number of surviving mice against the tested mice: 100%
Candida albicans; 1.5 mg/mouse, oral
  Number of surviving mice: 0/5
  Percent of the number of surviving mice against the tested mice: 0%
Candida albicans; 3.0 mg/mouse, oral
  Number of surviving mice: 0/5
  Percent of the number of surviving mice against the tested mice: 0%
Candida albicans; 6.0 mg/mouse, oral
  Number of surviving mice: 3/5
  Percent of the number of surviving mice against the tested mice: 60%
Candida albicans; 12.0 mg/mouse, oral
  Number of surviving mice: 3/5
  Percent of the number of surviving mice against the tested mice: 60%
